The test system of test [1] is RAGE-mediated transport of Aβ40 across the BBB. Nature of the test: Arterial vascular brain perfusion: transport of 125I-Aβ40 across the BBB in APPsw+/− mice. The note with it: Mus musculus, read-out: inhibition of Aβ transport across the BBB. Type of test: in vivo. The text has this: The statistical significance of differences is shown. Data are mean±s.e.m., n=3-4 per group.
An arterial vascular brain perfusion technique (LaRue et al., 2004) was used to determine whether FPS2 blocks RAGE-mediated transport of circulating ^125I-labeled Aβ40 across the BBB in 4-6 month old APPsw^+/− mice. We and others have reported that expression of RAGE in brain microvessels in these mice is increased by about 5-fold compared to the littermate controls (Deane et al., 2003; Donahue et al., 2004).

Test [2] relates to RAGE-transfected CHO cells. Nature of the test: Thiobarbituric acid reactive substance (TBARS) generation (Aβ/RAGE-induced oxidant stress) in RAGE-transfected CHO cells. It counts as cell-based. The note with it: 1 μM Aβ40; FPS2 at 50 nM or 500 nM.
For test [3], the system named is APPsw+/− mice. Nature of the test: Human Aβ40 and Aβ42 levels in hippocampus and cortex by ELISA, chronic treatment of APPsw+/− mice. Type of test: in vivo. The settings on record: 1 mg/kg per day i.p. for two months. As to the method:
A-B, Aβ40 and Aβ42 levels in hippocampus (A) cortex (B) of APPsw^+/− mice treated with vehicle (filled square) or FPS2 (filled triangle). FPS2 (1 mg/kg per day) was administered intraperitoneally to mice for two months beginning at the age of 8 months. Values are means±s.e.m, n=5-6 per group.
(§1) In the chronic-treated mice, Aβ40 and Aβ42 levels in the hippocampus were reduced by about 85% and 90%, respectively, in the FPS2-treated mice compared to vehicle (FIG. 6A). Similarly, Aβ40 and Aβ42 levels in the cortex were reduced by about 70% and 80%, respectively (FIG. 6B).
Compounds were synthesized in parallel using semiautomated chemical reactions. Five commercially-available aromatic aldehydes were condensed in reductive amination reactions with five hydrophobic amines to form 25 secondary amines. Parallel acylation of these 25 secondary amines with five aromatic acyl chlorides provided the final 125-compound library of tertiary amides. The identity of compounds was verified by mass spectrometry (FIG. 9). Purity was assessed by reverse-phase gradient HPLC. Library members isolated with purity <95% were subjected to preparative HPLC purification prior to assay. • Animals. APPsw^+/− (Tg2576) mice were from Taconic Farms (Germantown, N.Y.). Mice were housed under standard conditions (12 hour light/dark cycle starting at 07:00 AM; 21±2° C.; 55±10% humidity) in solid-bottom cages on woodchip bedding. Mice were anesthetized by intraperitoneal injection with urethane (750 mg/kg) and α-chloralose (50 mg/kg). All procedures on mice were performed according to the NIH guidelines, which were approved by the University of Rochester's Committee on Animal Resources. • FPS2 chronic treatment of APPsw^+/− mice. APPsw^+/− mice (n=5-6 per group) were treated intraperitoneally with FPS2 (1 mg/kg per day) or saline for two months beginning at the age of 8 months. After two months of treatment, (i) the cerebral blood flow response to brain activation (whisker stimulation) was measured and (ii) behavioral tests including operant learning, novel object location (NOL), and novel object recognition (NOR) were performed. After these functional tests, the mice were sacrificed and their brains analyzed for Aβ40, Aβ42, and amyloid levels. • CBF response to brain activation. The CBF response to vibrissal stimulation in anesthetized APPsw^+/− mice was measured by using laser-doppler flowmetry (Transonic Systems, BLF 21 D). The tip of the laser-doppler probe was stereotaxically placed 0.5 mm above the dura of the cranial window. The right vibrissae were cut to about 5 mm and stimulated by gentle stroking at 3-4 Hz, for 1 min with a cotton-tip applicator. […] The time exploring the novel and familiar objects was scored by hand to provide discrimination. • Human Aβ40 and Aβ42. […]

Test [4] has as its system APPsw+/− mice. Kind of test: Thioflavin S-positive amyloid load in brain, chronic treatment of APPsw+/− mice. Type of test: in vivo. The settings on record: 1 mg/kg per day i.p. for two months. As to the method:
Amyloid load hippocampus and cortex of APPsw^+/− mice treated with vehicle (open bars) or FPS2 (closed bars). FPS2 (1 mg/kg per day), was administered intraperitoneally to mice for two months beginning at the age of 8 months. Values are means±s.e.m, n=5-6 per group.
as §1
Compounds were synthesized in parallel using semiautomated chemical reactions. […] Purity was assessed by reverse-phase gradient HPLC. […] After two months of treatment, (i) the cerebral blood flow response to brain activation (whisker stimulation) was measured and (ii) behavioral tests including operant learning, novel object location (NOL), and novel object recognition (NOR) were performed. After these functional tests, the mice were sacrificed and their brains analyzed for Aβ40, Aβ42, and amyloid levels. • CBF response to brain activation. The CBF response to vibrissal stimulation in anesthetized APPsw^+/− mice was measured by using laser-doppler flowmetry (Transonic Systems, BLF 21 D). […] The time exploring the novel and familiar objects was scored by hand to provide discrimination. • Human Aβ40 and Aβ42. […]

Test [5] addresses T1, RAGE (Homo sapiens, UniProt Q15109).
T1 construct: expressed in transfected cells; host or cells: Chinese hamster ovary (CHO) cells
Nature of the test: 125I-Aβ40 specific binding on RAGE-transfected CHO cells at 4° C., competitive inhibition. The text has this:
Data are mean±s.e.m., n=3 per group.
All three are tertiary amides substituted with a large, hydrophobic hydrocarbon moiety and a monosubstituted aromatic moiety. Linkage to the monosubstituted aromatic is either direct (FPS2) or via an alkyl (FPS1) or heteroaromatic (FPS3) spacer. Two of the compounds also feature a highly electron-poor substituted benzene ring (3-nitro, 4-chloro for FPS1; 3,5-dinitro for FPS2).

The test system of test [6] is RAGE-transfected CHO cells. Nature of the test: NF-κB activation (translocation) in RAGE-transfected CHO cells. It counts as cell-based. The settings on record: 1 μM Aβ40; FPS2 at 50 nM or 500 nM.

T1 sequence (Q15109 23-404): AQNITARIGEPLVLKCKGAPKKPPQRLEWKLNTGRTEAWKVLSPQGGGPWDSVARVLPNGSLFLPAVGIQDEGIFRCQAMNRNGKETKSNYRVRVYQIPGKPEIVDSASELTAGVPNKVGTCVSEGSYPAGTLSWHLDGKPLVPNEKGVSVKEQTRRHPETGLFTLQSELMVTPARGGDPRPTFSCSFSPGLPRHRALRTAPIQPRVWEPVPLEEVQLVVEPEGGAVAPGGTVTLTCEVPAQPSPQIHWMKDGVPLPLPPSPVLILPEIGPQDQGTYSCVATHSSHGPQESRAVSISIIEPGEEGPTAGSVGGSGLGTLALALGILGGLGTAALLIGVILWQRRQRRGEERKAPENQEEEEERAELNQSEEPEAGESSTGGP

Regarding `CC(CC(=O)NCCCN(C(=O)c1cc([N+](=O)[O-])cc([N+](=O)[O-])c1)c1ccccc1)CC(C)(C)C` (centres unmarked) [FPS2, 3,5-dinitro-N-phenyl-N-[3-[(3,5,5-trimethyl-1-oxohexyl)amino]propyl]-(9Cl)-benzamide], in test [1], the inhibition (usually the drop in the measured response relative to a control, in per cent) at 4.8 µg/mL turned out to be 100%. Besides, in test [2], the TBARS generation entry was “inhibited”. Moreover, in test [3], the “reduction of Aβ40 level in the cortex compared to vehicle” value is on record as “about 70%”, the “reduction of Aβ40 level in the hippocampus compared to vehicle” value is recorded as “about 85%”, the “reduction of Aβ42 level in the cortex compared to vehicle” value is approximately 80% and the “reduction of Aβ42 level in the hippocampus compared to vehicle” value was approximately 90%. In test [4], the “reduction of thioflavin-S positive areas (amyloid load) in the cortex compared to vehicle” value is “about 85%” and the “reduction of thioflavin-S positive areas (amyloid load) in the hippocampus compared to vehicle” value is “about 85%”. Besides, the “Ki/Kd ratio (Ki compound's inhibitory constant, Kd Aβ-RAGE binding constant)” value in test [5] is reported as 0.45. The “inhibitory constant (Ki) of Aβ-RAGE binding” value in test [5] (competitive) is “low”. Also, in test [6], the NF-κB activation entry was “inhibited”.

For the origin of these results see US8778985B2, “Inhibiting amyloid-beta peptide/rage interaction at the blood-brain barrier” (The University of Rochester, priority 2006, dated 2014).
